What was measured:
[1] = system: HER3-ss+4aa/Gaussia Luciferase; test: Dox-Induced Her3-ss-Gluc Assay; type: cell-based; details: 24 hr Dox induction; 293FRT/TO cells; mean; read-out: 24 hr Dox Inducible Her3(ss + 4)Gluc 293FRT/TO: Mean IC50
How it was run: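 Flp-In 293 T-REx cells, stable HER3-ss+4aa/Gaussia luciferase insert, hygromycin/blasticidin selected; plated day before; compound in DMSO/media + doxycycline; 37° C., 5% CO2.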

[2] = system: TNFα-FL/Gaussia Luciferase; test: Dox Induced TNFα-FL-Gluc Assay; type: cell-based; details: for IC50: 24 hr Dox induction, 293FRT/TO cells, mean, read-out: 24 hr Dox Inducible TNFaFLGluc 293FRT/TO: Mean IC50; for 24 hr Dox Inducible TNFaFLGluc 293FRT/TO: TNF/PD1: ratio of TNFaFLGluc IC50 to PD1ssGluc IC50, '<=>' given where both are I.A.
How it was run: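 Cell line: stable Flp-In 293 T-REx, TNFα-FL(1-233)-Gaussia luciferase fusion, T-REx-inducible. Plated day -1; compounds in DMSO/media + doxycycline, 37 °C, 5% CO2. Undefined stereocentres = mixture tested.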

[3] = Liver Microsome Stability Assay (monkey); details: monkey liver microsomes, with NADPH, 1.0 uM compound
Method: (§1) Stability of a compound was assessed in the presence of liver microsomes from various sources—mouse, rat, monkey and human liver microsomes. 1.0 uM compound, 0.4% DMSO in 0.1 M Potassium Phosphate with 1.0 mg/mL liver microsomes, were incubated at 37° C. with or without 1 mM NADPH. The samples were quenched at 0, and 30 minutes.

[4] = system: multiple myeloma cell line NCI-H929; test: H929 Cell Viability Assay; type: cell-based, human; details: Homo sapiens, NCI-H929, 48 h, NCI-H929 cells, Celltiter-Glo
How it was run: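 Cells in RPMI 1640/10% FBS; compound dilutions in DMSO/media; 48 h, 37° C, 5% CO2; CellTiter-Glo luciferase readout for viability.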

[5] = Liver Microsome Stability Assay (human); details: human liver microsomes, with NADPH, 1.0 uM compound
Method: as §1

[6] = system: multiple myeloma cell line U266B1; test: U266 Cell Viability Assay; type: cell-based, human; details: Homo sapiens, U-266, 48 h, U266B1 cells, Celltiter-Glo
How it was run: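 Luminescent ATP read-out (CellTiter-Glo) after 48 h compound exposure at 37° C., 5% CO2; cells maintained in RPMI 1640/10% FBS/2 mM glutamine/pen-strep, compounds diluted in DMSO/media.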

[7] = system: IL-2-FL/Gaussia Luciferase; test: Dox Induced IL2-FL-Gluc Assay; type: cell-based; details: for IC50: 24 hr Dox induction, 293FRT/TO cells, mean, read-out: 24 hr Dox Inducible IL2FLGluc 293FRT/TO: Mean IC50; for 24 hr Dox Inducible IL2FLGluc 293FRT/TO: IL2/PD1: ratio of IL2FLGluc IC50 to PD1ssGluc IC50, '<=>' given where both are I.A.
How it was run: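 Stable Flp-In 293 T-REx line, Tet-regulated IL-2 (aa 1-153)–Gaussia luciferase fusion; hygromycin/blasticidin selected. Plated day -1; compound + doxycycline added next day; 37° C, 5% CO2.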

[8] = system: PD1-ss+10aa/Gaussia Luciferase; test: Dox-Induced PD1-ss-Gluc Assay; type: cell-based; details: 24 hr Dox induction; 293FRT/TO cells; mean; read-out: 24 hr Dox Inducible PD1ssGluc 293FRT/TO: Mean IC50
How it was run: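 Gaussia luciferase fused downstream of the PD1 signal peptide plus 10 residues was expressed on doxycycline induction in stably transfected Flp-In 293 T-REx cells. Compounds were added with doxycycline and incubated at 37 °C, 5% CO2.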

[9] = Liver Microsome Stability Assay (mouse); details: mouse liver microsomes, with NADPH, 1.0 uM compound
Method: as §1

[10] = Liver Microsome Stability Assay (rat); details: rat liver microsomes, with NADPH, 1.0 uM compound
Method: as §1

Row | IC50 [1] [nM] | IC50 [2] [nM] | Liver Microsome Stability (Multiple Species): Monkey - % Remaining after 30 min w/NADPH [3] [%] | EC50 [4] [nM] | Liver Microsome Stability (Multiple Species): Human - % Remaining after 30 min w/NADPH [5] [%] | EC50 [6] [nM] | IC50 [7] [nM] | IC50 [8] [nM] | Liver Microsome Stability (Multiple Species): Mouse - % Remaining after 30 min w/NADPH [9] [%] | Liver Microsome Stability (Multiple Species): Rat - % Remaining after 30 min w/NADPH [10] [%] | Compound | 24 hr Dox Inducible TNFaFLGluc 293FRT/TO: TNF/PD1 [2] | 24 hr Dox Inducible IL2FLGluc 293FRT/TO: IL2/PD1 [7]
1 | 15900 | > 25000 | 18.5 | > 25000 | 19.1 | > 25000 | 6460 | 7640 | 19.8 | 13.6 | N#CC[C@H](O)Cn1cccc1C(=O)Nc1nc([C@H]2CCCN2c2ccccc2)cs1 [Compound C100, 1-((S)-3-cyano-2-hydroxypropyl)-N-(4-((R)-1-phenylpyrrolidin-2-yl)thiazol-2-yl)-1H-pyrrole-2-carboxamide] | >3.27 | 0.85
2 | 109 | 984 | 0.39 | 3980 | 0.93 | 14600 | 97.5 | 44.2 | 6.44 | 2.73 | O=C(Nc1nc([C@H]2CCCN2c2ccccc2)cs1)c1cccn1Cc1ccnnc1 [Compound C102, (R)-N-(4-(1-phenylpyrrolidin-2-yl)thiazol-2-yl)-1-(pyridazin-4-ylmethyl)-1H-pyrrole-2-carboxamide] | 22.2 | 2.2
3 | 1340 | 4990 | 12.9 | 14000 | 34.8 | > 25000 | 1160 | 665 | 54.8 | 30 | CC(=O)N1CCC(Oc2ccc(N3CCC[C@@H]3c3csc(NC(=O)c4cccn4CC4CCOCC4)n3)cc2)CC1 [Compound C103, (R)-N-(4-(1-(4-((1-acetylpiperidin-4-yl)oxy)phenyl)pyrrolidin-2-yl)thiazol-2-yl)-1-((tetrahydro-2H-pyran-4-yl)methyl)-1H-pyrrole-2-carboxamide] | 7.5 | 1.7
4 | 350 | 2410 | 0.09 | 6160 | 3.01 | > 25000 | 412 | 143 | 4.94 | 0.82 | CC(=O)NCc1ccc(N2CCC[C@@H]2c2csc(NC(=O)c3cccn3CC3CCOCC3)n2)cc1 [Compound C104, (R)-N-(4-(1-(4-(acetamidomethyl)phenyl)pyrrolidin-2-yl)thiazol-2-yl)-1-((tetrahydro-2H-pyran-4-yl)methyl)-1H-pyrrole-2-carboxamide] | 16.8 | 2.9
5 | 107 | 900 | 0.67 | 3650 | 0.19 | > 25000 | 157 | 36 | 1.99 | 1.71 | NC(=O)c1ccc(N2CCC[C@@H]2c2csc(NC(=O)c3cccn3CC3CCOCC3)n2)cc1 [Compound C105, (R)-N-(4-(1-(4-carbamoylphenyl)pyrrolidin-2-yl)thiazol-2-yl)-1-((tetrahydro-2H-pyran-4-yl)methyl)-1H-pyrrole-2-carboxamide] | 25 | 4.4
6 | 1430 | 19400 | 1.96 | > 25000 | 19 | > 25000 | 2640 | 1090 | 28.8 | 3.54 | N#CC1CC(Cn2cccc2C(=O)Nc2nc([C@H]3CCCN3c3ccccc3)cs2)C1 (stereo partly drawn) [Compound C106, (R)-1-((3-cyanocyclobutyl)methyl)-N-(4-(1-phenylpyrrolidin-2-yl)thiazol-2-yl)-1H-pyrrole-2-carboxamide] | 17.7 | 2.4
7 | 56.2 | 793 | 5.47 | 2160 | 23.7 | > 25000 | 87.1 | 32.2 | 16.4 | 18.2 | CC(=O)Nc1ccc(N2CCC[C@@H]2c2csc(NC(=O)c3cccn3CC3CCOCC3)n2)cc1 [Compound C107, (R)-N-(4-(1-(4-acetamidophenyl)pyrrolidin-2-yl)thiazol-2-yl)-1-((tetrahydro-2H-pyran-4-yl)methyl)-1H-pyrrole-2-carboxamide] | 24.6 | 2.7
8 | 46.4 | 302 | 22.2 | 1780 | 61.3 | > 25000 | 94.9 | 31.4 | 74.3 | 36 | CCc1ccc(N2CCC[C@@H]2c2csc(NC(=O)c3cccn3CC3CCOCC3)n2)cc1 [Compound C110, (R)-N-(4-(1-(4-ethylphenyl)pyrrolidin-2-yl)thiazol-2-yl)-1-((tetrahydro-2H-pyran-4-yl)methyl)-1H-pyrrole-2-carboxamide] | 9.61 | 3
9 | 295 | 4940 | 0.28 | > 25000 | 0.86 | > 25000 | 654 | 318 | 0.64 | 0.62 | O=C(Nc1nc([C@H]2CCCN2c2ccccc2)cs1)c1cccn1-c1cccc2cnccc12 [Compound C111, (R)-1-(isoquinolin-5-yl)-N-(4-(1-phenylpyrrolidin-2-yl)thiazol-2-yl)-1H-pyrrole-2-carboxamide] | 15.5 | 2.1
